Usually melting point stands for the temperature, or range, at which the solid turns liquid. `O=c1[nH]cnc2ccc(I)cc12` came in with a melting point of 272 to 274 °C.

For `Cc1nccn1-c1cc(C#N)ccn1`, the melting point was in the range of 194 to 196 °C.

Regarding `O=C(O)Cc1ccc2c(c1)CCC2`, the melting point lay within 86 to 90 °C.

Turning to `O=C(CCl)c1ccc(I)cc1`, the melting point was 127 to 129 °C.

The compound `COc1cc(C(=O)O)ccc1OCc1ccc(Cl)cc1` returned a melting point of 221 to 223 °C. The compound `NC(=O)C1CNCCN1` (configuration not stated) yielded a melting point of 142 to 144 °C. For `CN(C)S(=O)(=O)CC(=O)O` the value was 130 to 132 °C. In the case of `COc1ccccc1-c1csc(=O)[nH]1`, the melting point is 127 to 129 °C. `NC(=O)c1ccn(-c2ccccc2)n1` displayed a melting point of 149 to 151 °C. Turning to `Cc1csc(-c2cccc(N)c2)n1`, the melting point lay within 82 to 84 °C.

Compound `O=C1Nc2cccc(I)c2C1=O` had a melting point of 199 to 201 °C. In the case of `CCC(C)NC(=O)c1cccc(CN)c1` (configuration not stated), the melting point was 95 to 97 °C. As for `CCc1cccc2c(CCN)c[nH]c12`, the melting point lay in the range of 91 to 93 °C. Then `O=C(c1ccc(F)cc1)c1ncccn1`, with 128 to 130 °C. Compound `CC(=O)c1nnn(-c2ccccc2)c1C` came in with a melting point of 99 to 101 °C. With `Nc1cc(C(=O)O)c2ccccc2c1`, the melting point was in the range of 178 to 180 °C. Regarding `O=C(O)c1ccc2c(c1)C(=O)N(CC1CCCO1)C2=O` (configuration not stated), the melting point lay within 153 to 155 °C. `N#CCc1ccc(OCC2CO2)cc1` (configuration not stated) yielded a melting point of 52 to 54 °C. `O=C(O)c1cccc(CSc2cc(Cl)cc(Cl)c2)c1` gave a melting point of 147 to 149 °C.

Take `CC(=O)c1ccc(NS(=O)(=O)c2ccc(Cl)cc2)cc1`: the melting point was 132 to 134 °C. Then `CC(C)Oc1ccc(/C=C/C(=O)O)cc1`, with 156 to 158 °C; and `O=C(O)Cc1ccc(OCc2ccccn2)cc1`, with 153 to 155 °C. `BrCCOc1ccc2ccccc2c1` showed a melting point of 94 to 96 °C.

Take `c1ccc2sc(NCC3CCCO3)nc2c1` (configuration not stated): the melting point fell in the range of 130 to 132 °C. In the case of `O=C1NCC2(CCCC2)O1`, the melting point was 89 to 91 °C. For `Cc1cc(C(=O)O)ccc1N1CCCS1(=O)=O` the value was 174 to 176 °C. In turn, `COc1ccc(C(=O)NNC(=O)CCl)cc1OC` gave a melting point of 173 to 175 °C.

On to `Cc1ccc(C)c(NC(=O)CCl)c1`, for which the melting point fell in the range of 161 to 163 °C.

In turn, `CN(C)c1cc(C(=O)O)cc(Cl)n1` returned a melting point of 194 to 196 °C.

`BrCCc1ccc2ccccc2c1` came in with a melting point of 62 to 64 °C. For the compound `O=C(O)CSc1nnc(C2CC2)n1Cc1ccccc1`, the melting point was in the range of 194 to 196 °C. `COc1ccccc1-n1cc(-c2ccc(Cl)cc2Cl)nc1S` returned a melting point of 244 to 246 °C. Then `O=C(O)CCc1nnc(-c2ccc(Cl)cc2)o1`, with 159 to 161 °C; and `COc1ccc(O)c(C(=O)c2ccccc2)c1`, with 81 to 83 °C. For `Cc1cc(Br)ccc1OCc1ccccc1` the value was 56 to 58 °C; for `CC(O)C1CCCNC1` (configuration not stated), 52 to 54 °C; for `Cc1nc(-c2cccc(N)c2)oc1C`, 104 to 106 °C. In turn, `Nc1ccc(-c2nc3cc(Br)ccc3[nH]2)cc1` returned a melting point of 219 to 221 °C.

In turn, `O=C(O)c1nnn(-c2ccccc2)c1C1CC1` came in with a melting point of 174 to 176 °C. The compound `Cn1c(-c2cccc(O)c2)nc2ccccc21` yielded a melting point of 174 to 176 °C. As for `Fc1cc(Br)cc2c(Cl)ccnc12`, the melting point lay within 149 to 151 °C. Take `O=C(O)C=Cc1ccccc1OC(F)(F)F`: the melting point fell in the range of 174 to 176 °C.

`COc1cc(C=O)cc(OC)c1OC(C)=O` yielded a melting point of 115 to 117 °C.

As to `Cc1nc(C)c(C)c(O)n1`, the melting point was in the range of 276 to 278 °C. The compound `O=C(O)COC(c1ccccc1)c1ccccc1` showed a melting point of 81 to 83 °C. Then `Cc1ccc2cccnc2c1S(N)(=O)=O`, with 170 to 172 °C.

The compound `O=C(O)C1CCCN1C(=O)c1ccccc1O` (configuration not stated) yielded a melting point of 134 to 136 °C. For `Cc1cc(C(=O)CCl)c(C)n1-c1ccc2c(c1)OCCO2` the value was 99 to 103 °C; for `Cc1ccc(Br)cc1NC(=O)CN`, 141 to 143 °C; for `CN(CC(=O)O)S(=O)(=O)c1cccnc1`, 175 to 177 °C.

Take `CC(C)NC(=O)C(C#N)=CN(C)C`: the melting point lay in the range of 113 to 115 °C.

Consider `N#CCc1ccc(Oc2ncccn2)cc1`, for which the melting point fell in the range of 70 to 72 °C. For `Cc1cccc(C(=O)NC(CCS(C)(=O)=O)C(=O)O)c1` (configuration not stated) the value was 235 to 239 °C; for `COc1cccc(/C=C/c2cc(C(=O)O)c3cc(Br)ccc3n2)c1`, 285 to 287 °C; for `O=C(CC(F)(F)F)c1cc(F)ccc1F`, 45 to 47 °C.

In turn, `O=C(O)CCc1ccc(S(=O)(=O)N2CCOCC2)cc1` yielded a melting point of 160 to 162 °C.

The compound `Cn1nc(C(F)(F)F)c(C(=O)O)c1C(F)(F)Cl` showed a melting point of 119 to 121 °C. For `O=Cc1cn(-c2ccc(F)c(Cl)c2)nn1` the value was 148 to 150 °C. Then `O=C(CCl)NCC(=O)Nc1ccc(F)c(F)c1F`, with 160 to 162 °C; and `c1cnc2c(NC3CCC3)cccc2c1`, with 48 to 50 °C; and `Cc1nc2c(cnn2C(C)C)cc1C(=O)O`, with 166 to 168 °C. Regarding `COC(=O)COc1ccc(Br)cc1`, the melting point was 49 to 51 °C. For the compound `CCSc1ccccc1C(=O)O`, the melting point is 135 to 137 °C. For `OC(CC1CCCCCN1)c1ccccc1` (configuration not stated), the melting point fell in the range of 36 to 38 °C. For `COCCS(=O)(=O)Cc1cccc(S(=O)(=O)Cl)c1` the value was 109 to 111 °C; for `O=C(O)c1cc(F)c(F)cc1I`, 127 to 129 °C; for `NC(CC(=O)O)c1cccs1` (configuration not stated), 219 to 221 °C. Turning to `O=c1cc(CCl)c2ccc(Br)cc2o1`, the melting point lay within 160 to 162 °C.

The compound `N#Cc1cc2ccccc2nc1Cl` yielded a melting point of 163 to 165 °C. `Cn1c(=O)[nH]c(=O)c2cc(S(=O)(=O)Cl)cnc21` came in with a melting point of 214 to 216 °C. Take `O=C(O)c1ccc(F)c(S)c1`: the melting point lay in the range of 163 to 165 °C.

For the compound `CCOC(=O)C(=O)CC(=O)c1cc(Cl)ccc1Cl`, the melting point lay within 76 to 78 °C.

Compound `CCNC(=O)NC(=O)CCl` gave a melting point of 138 to 140 °C. Turning to `Cc1ccc(-n2cnnn2)cc1N`, the melting point fell in the range of 171 to 173 °C. For the compound `Cc1cc(C)cc(-n2ncc(C(=O)O)n2)c1`, the melting point was in the range of 158 to 160 °C. For `CC(=O)c1cn(C)nc1C` the value was 72 to 74 °C; for `CC(C)NS(=O)(=O)C1CCNC1` (configuration not stated), 104 to 106 °C. As for `CC(C)(C)c1n[nH]cc1C=O`, the melting point lay in the range of 131 to 133 °C. In the case of `NC(=O)CCc1ccccc1`, the melting point was in the range of 100 to 102 °C. Compound `CNC(=O)c1ccc(OC)c(N)c1` registered a melting point of 108 to 110 °C. Compound `CC(C)CN1C(=O)NC(=O)C1=O` had a melting point of 145 to 148 °C. For `Cc1nc2sc(C(=O)O)c(C)c2c(=O)[nH]1` the value was 388 to 390 °C; for `COC1CCN(C(=O)Nc2cccc(C(=O)O)c2)CC1`, 196 to 198 °C. Then `CS(=O)(=O)CCOc1cccc(N)c1`, with 79 to 81 °C; and `CC(C)Cn1cc(C(F)F)c(C(=O)O)n1`, with 94 to 96 °C.

The compound `NS(=O)(=O)c1cccnc1` displayed a melting point of 109 to 111 °C. `Cc1nc(N2CCOCC2)sc1C=O`: the melting point was in the range of 166 to 168 °C. Then `CCc1cccc2c(C(=O)CCl)c[nH]c12`, with 165 to 167 °C; and `CC(C)COc1ccc(CC(=O)O)cc1`, with 86 to 88 °C. For `CN(C(=O)OC(C)(C)C)c1ccc(O)cc1` the value was 133 to 135 °C. For `O=C1COc2c(F)cc(Br)cc21` the value was 102 to 104 °C; for `O=C(O)CCSc1ccccc1Cl`, 92 to 102 °C. As to `O=C1C(Br)CCN1c1ccc(F)c(Cl)c1` (configuration not stated), the melting point lay within 99 to 101 °C. In the case of `OCC1(NCCc2ccccc2)CCCC1`, the melting point is 86 to 88 °C. Then `CCc1cc(Cl)n2c(nc3ccccc32)c1C#N`, with 175 to 177 °C. For `Nc1nc(CCl)nc2oc(-c3ccccc3)c(-c3ccccc3)c12` the value was 201 to 203 °C; for `CC(=O)c1ccc(S(=O)(=O)CC(F)F)cc1`, 97 to 99 °C.

`Cc1cc(C)n(-c2ccc(Cl)c(C(=O)O)n2)n1`: the melting point was 184 to 186 °C. Then `CC1CN(CC(C)C(=O)NN)CC(C)O1` (configuration not stated), with 70 to 72 °C; and `N#CCCCOc1cccnc1N`, with 88 to 90 °C; and `Cc1ccc(S(=O)(=O)N2CCCCC2)cc1S(=O)(=O)Cl`, with 154 to 156 °C. For `N#CCOc1ccc(CC(=O)O)cc1` the value was 111 to 113 °C. `CC(C)NS(=O)(=O)c1ccc(/C=C/C(=O)O)cc1` came in with a melting point of 223 to 225 °C. For `N#Cc1nnc[nH]1` the value was 188 to 190 °C; for `CCC(NC(=O)OC(C)(C)C)(C(N)=O)C(C)C` (configuration not stated), 157 to 159 °C. Compound `Clc1ccnc2cc(Br)ccc12` showed a melting point of 99 to 101 °C.

In turn, `O=C(O)COc1ccc(F)cc1Br` displayed a melting point of 142 to 144 °C. Then `CC=C(C)C=CC(=O)O`, with 89 to 91 °C; and `O=C(O)COc1cc(C(F)(F)F)cc(C(F)(F)F)c1`, with 102 to 104 °C.

`Cc1nn(C)c(C)c1C(C)C(=O)O` (configuration not stated) displayed a melting point of 119 to 121 °C. `Cn1cc(C(=O)O)c(-c2ccccc2)n1` registered a melting point of 204 to 206 °C. For `CN(CCC(N)=S)C(=O)OC(C)(C)C` the value was 79 to 81 °C; for `CC(=O)c1nc2cc(Cl)ccc2n1C`, 96 to 98 °C.

On to `O=C(O)c1cnn(-c2ccc(Cl)cc2Cl)c1`, for which the melting point was 246 to 248 °C. Then `Cc1sc2ncnc(SCC(=O)O)c2c1C`, with 215 to 217 °C. Then `O=C(O)c1c(F)cc(OC(F)F)cc1F`, with 106 to 108 °C; and `CCc1cccc2c(C(=O)O)c[nH]c12`, with 193 to 195 °C. Consider `O=C(NCCO)c1ccncc1`, for which the melting point lay in the range of 136 to 138 °C.

For the compound `Oc1ccc(-c2nc3cc(C(F)(F)F)ccc3s2)cc1`, the melting point is 182 to 184 °C. Take `O=C(O)CC1CCCCO1` (configuration not stated): the melting point was in the range of 49 to 51 °C. Then `O=C(O)C1CCN(c2ccc(S(=O)(=O)N3CCOCC3)cc2[N+](=O)[O-])CC1`, with 225 to 227 °C; and `Nc1[nH]ncc1-c1ccc2c(c1)OCO2`, with 166 to 168 °C.
